# Source: PMC10740425, “How Deep Learning in Antiviral Molecular Profiling Identified Anti-SARS-CoV-2 Inhibitors” (Biomedicines, 2023)
# System: SARS-CoV-2 beta variant
# Design: species or system BALB/C mice
# Settings: mouse, in vivo, 5 mg/kg
row,SMILES,lung viral titers compared to vehicle control
1,Cn1cnc([N+](=O)[O-])c1Sc1ncnc2nc[nH]c12 [azathioprine],did not demonstrate a significant reduction in viral titers
2,O=P(O)(O)OC[C@H]1O[C@@H](n2cnc3c(S)ncnc32)[C@H](O)[C@@H]1O [thioinosinic acid],approximately tenfold lower
